Test results reported in ChEMBL document CHEMBL1201862, “PubChem BioAssay data set” (2004).
Activity calls are given as the source filed them.

Key:
Beta Lactamase [1] = target: T1, Beta Lactamase (Pseudomonas aeruginosa, UniProt Q932Y6); test: BLA reporter interference, concentration series – BLA reporter cells, FRET fluorescence, artefact control for NOD2-RIPK2 interaction inhibitor project, dose response (AID 651552); format: functional, cell-based
[2] = reduction of Shn3 3'UTR-driven luciferase in osteoblasts – cell-based, Clone20 osteoblasts, firefly luciferase, cherry-picked, dose response (AID 624132); format: functional;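 also: firefly luciferase luminescence from reporter carrying the Shn3 3'UTR in osteoblasts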
[3] = Fluorescence-based cell-based high throughput dose response assay for inhibitors of the interaction of nucleotide-binding oligomerization domain containing 2 (NOD2) and the receptor-interacting serine-threonine kinase 2 (RIPK2).; format: functional; conditions: Homo sapiens
[4] = target: Heat shock protein HSP 90-alpha (Homo sapiens, UniProt P07900); format: functional, organism-based
[5] = target: T2, Polyadenylate-binding protein 1 (Homo sapiens, UniProt P11940); test: MLLE domain peptide-binding blockers, IC50 – biochemical, fluorescence polarization, FITC-PAM2 peptide, dose response (AID 602259); format: functional; conditions: read-out: IC50_Mean
T2 sequence (P11940 whole entry, the tested form may be a part): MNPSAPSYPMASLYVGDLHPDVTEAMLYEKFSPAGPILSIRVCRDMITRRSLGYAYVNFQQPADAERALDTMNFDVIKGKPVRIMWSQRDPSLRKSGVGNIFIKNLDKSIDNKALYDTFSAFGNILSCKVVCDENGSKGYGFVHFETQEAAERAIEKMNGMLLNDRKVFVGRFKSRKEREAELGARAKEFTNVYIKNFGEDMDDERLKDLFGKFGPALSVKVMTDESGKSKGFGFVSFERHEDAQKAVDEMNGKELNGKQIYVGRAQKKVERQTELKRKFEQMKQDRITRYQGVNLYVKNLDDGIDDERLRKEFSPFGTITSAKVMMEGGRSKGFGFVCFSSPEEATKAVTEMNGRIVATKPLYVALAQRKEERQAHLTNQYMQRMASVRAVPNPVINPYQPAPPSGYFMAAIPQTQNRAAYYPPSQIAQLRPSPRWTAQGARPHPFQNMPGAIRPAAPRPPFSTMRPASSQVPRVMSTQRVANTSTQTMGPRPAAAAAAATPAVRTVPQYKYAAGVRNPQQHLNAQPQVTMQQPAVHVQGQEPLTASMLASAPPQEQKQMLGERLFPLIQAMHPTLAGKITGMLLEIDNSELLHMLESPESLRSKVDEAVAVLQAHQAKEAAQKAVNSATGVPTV

[6] = non-specific 3'UTR reporter inhibition in Clone20-Shn3RL – cell-based, Renilla luciferase, cherry-picked, counter-screen for Shn3 inhibitor project, dose response (AID 624133); format: functional
CHO = CHO cell viability loss, potency – luminescence, cytotoxicity control for TLR9-MyD88 binding inhibitor project, dose response (AID 588339); format: functional, cell-based, hamster; conditions: Cricetulus griseus;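 also: CHO cells stably coexpressing TLR9 and MyD88 fusions from primary screen; compound exposure lasted 48 hours before viability readout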
Beta-galactosidase = Beta-galactosidase (Escherichia coli, UniProt Q8VNN2); test: detection-enzyme interference by beta-gal modulators – biochemical, E. coli enzyme, set 3, artefact control for CCR6 antagonist project, dose response (AID 504712); format: functional
Chain of Beta-galactosidase (Q8VNN2 whole entry): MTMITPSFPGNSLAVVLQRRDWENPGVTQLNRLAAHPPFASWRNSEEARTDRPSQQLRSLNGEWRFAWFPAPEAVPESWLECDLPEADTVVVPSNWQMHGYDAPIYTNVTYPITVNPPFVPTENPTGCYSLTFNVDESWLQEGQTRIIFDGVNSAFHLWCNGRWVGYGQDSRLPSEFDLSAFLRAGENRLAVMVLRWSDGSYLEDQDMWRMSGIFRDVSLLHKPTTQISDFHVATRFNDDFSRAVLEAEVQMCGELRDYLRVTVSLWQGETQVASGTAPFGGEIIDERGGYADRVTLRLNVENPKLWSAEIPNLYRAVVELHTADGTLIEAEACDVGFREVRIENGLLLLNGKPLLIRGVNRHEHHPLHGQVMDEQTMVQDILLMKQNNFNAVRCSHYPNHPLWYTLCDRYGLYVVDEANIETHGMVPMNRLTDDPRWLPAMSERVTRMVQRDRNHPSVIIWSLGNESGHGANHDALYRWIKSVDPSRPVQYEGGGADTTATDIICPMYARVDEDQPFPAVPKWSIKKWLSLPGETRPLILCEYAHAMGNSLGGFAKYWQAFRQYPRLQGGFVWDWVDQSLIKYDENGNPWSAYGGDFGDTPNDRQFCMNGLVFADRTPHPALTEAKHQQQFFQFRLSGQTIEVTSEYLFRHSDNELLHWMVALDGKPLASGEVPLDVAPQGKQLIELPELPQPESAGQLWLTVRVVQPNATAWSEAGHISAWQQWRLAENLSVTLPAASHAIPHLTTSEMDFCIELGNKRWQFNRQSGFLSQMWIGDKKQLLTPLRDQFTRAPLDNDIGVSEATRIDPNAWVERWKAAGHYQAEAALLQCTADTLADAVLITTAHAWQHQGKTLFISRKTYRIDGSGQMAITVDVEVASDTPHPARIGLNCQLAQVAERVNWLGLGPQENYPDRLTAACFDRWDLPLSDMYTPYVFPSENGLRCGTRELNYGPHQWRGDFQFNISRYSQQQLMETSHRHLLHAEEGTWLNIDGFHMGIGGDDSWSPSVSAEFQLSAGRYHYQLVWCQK

Beta Lactamase [7] = target: T1, Beta Lactamase; test: BLA reporter interference, concentration series – BLA reporter cells, FRET fluorescence, artefact control for TLR9-MyD88 binding inhibitor project, dose response (AID 588341); format: cell-based;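 also: cell based assay in CHO-K1 cells stably expressing beta-lactamase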
[8] = loss of viability in HepG2 cells – cell-based, CellTiter-Glo, cherry-picked, cytotoxicity control for Shn3 inhibitor project, dose response (AID 624134); format: functional
[9] = target: T2, Polyadenylate-binding protein 1; test: MLLE binding blockers, Cy5 peptide tracer – biochemical, fluorescence polarization, Cy5-PAM2 peptide, secondary, miRNA deadenylation inhibitor project, dose response (AID 602260); format: functional; conditions: read-out: IC50_Mean
Cytochrome P450 2C9 = Cytochrome P450 2C9 (Homo sapiens, UniProt P11712)
Chain of Cytochrome P450 2C9 (P11712 whole entry): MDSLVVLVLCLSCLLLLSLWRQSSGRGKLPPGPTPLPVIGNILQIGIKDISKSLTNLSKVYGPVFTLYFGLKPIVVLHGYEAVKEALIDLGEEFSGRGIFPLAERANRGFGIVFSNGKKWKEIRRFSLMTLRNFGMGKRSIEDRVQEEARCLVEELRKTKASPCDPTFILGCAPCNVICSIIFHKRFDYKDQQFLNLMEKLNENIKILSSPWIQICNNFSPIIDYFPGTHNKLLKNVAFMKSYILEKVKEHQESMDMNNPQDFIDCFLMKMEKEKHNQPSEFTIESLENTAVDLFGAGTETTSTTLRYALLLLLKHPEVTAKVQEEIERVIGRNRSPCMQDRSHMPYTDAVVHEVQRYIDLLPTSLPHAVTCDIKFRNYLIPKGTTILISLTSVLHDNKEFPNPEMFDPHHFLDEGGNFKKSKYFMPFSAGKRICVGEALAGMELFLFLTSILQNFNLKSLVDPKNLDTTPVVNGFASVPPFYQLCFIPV

Orexin receptor type 2 [10] = target: T3, Orexin receptor type 2 (Homo sapiens, UniProt O43614); test: Counterscreen assay for antagonists of the orexin 1 receptor (OX1R; HCRTR1): Homogeneous Time Resolved Fluorescence (HTRF)-based cell-based dose response assay for antagonists of the orexin 2 receptor (OX2R; HCRTR2), run by assay provider.; format: functional
T3 sequence (O43614 whole entry): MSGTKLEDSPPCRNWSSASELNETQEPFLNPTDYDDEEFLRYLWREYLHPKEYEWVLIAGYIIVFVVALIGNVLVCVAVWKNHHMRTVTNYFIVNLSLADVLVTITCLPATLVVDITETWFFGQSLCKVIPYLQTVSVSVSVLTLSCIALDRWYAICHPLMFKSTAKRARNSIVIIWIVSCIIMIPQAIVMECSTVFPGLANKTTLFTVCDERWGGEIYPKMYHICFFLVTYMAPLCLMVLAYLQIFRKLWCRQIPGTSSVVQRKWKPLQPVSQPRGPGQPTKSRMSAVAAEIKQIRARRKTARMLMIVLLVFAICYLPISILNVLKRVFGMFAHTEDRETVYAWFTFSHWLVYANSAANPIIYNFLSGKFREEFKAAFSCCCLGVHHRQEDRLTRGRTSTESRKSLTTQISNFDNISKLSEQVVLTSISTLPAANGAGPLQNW

CHO-K1 = test: (§1) Counterscreen for antagonists of the orexin 1 receptor (OX1R; HCRTR1): Homogeneous time resolved fluorescence (HTRF)-based cell-based dose response assay to identify antagonists of the parental CHO-K1 cell line. [Related pubchem assays (depositor defined):AID434989, AID435008, AID463079, AID485270, AID492963, AID492964, AID492965, AID493232, AID504699, AID504701]; format: functional; conditions: Cricetulus griseus
Orexin receptor type 2 [11] = target: T3, Orexin receptor type 2; test: Counterscreen assay for antagonists of the orexin 1 receptor (OX1R; HCRTR1): Fluorescence-based cell-based dose response assay for antagonists of the orexin 2 receptor (OX2R; HCRTR2), run by assay provider.; format: functional
[12] = target: T4, Orexin/Hypocretin receptor type 1 (Homo sapiens, UniProt O43613); test: (§2) Fluorescence-based cell-based high throughput dose response assay for antagonists of the orexin 1 receptor (OX1R; HCRTR1). [Related pubchem assays (depositor defined):AID434989, AID435008, AID463079, AID485270, AID492963, AID492964, AID492965, AID493232, AID504717, AID504718]; format: functional
T4 sequence (O43613 whole entry): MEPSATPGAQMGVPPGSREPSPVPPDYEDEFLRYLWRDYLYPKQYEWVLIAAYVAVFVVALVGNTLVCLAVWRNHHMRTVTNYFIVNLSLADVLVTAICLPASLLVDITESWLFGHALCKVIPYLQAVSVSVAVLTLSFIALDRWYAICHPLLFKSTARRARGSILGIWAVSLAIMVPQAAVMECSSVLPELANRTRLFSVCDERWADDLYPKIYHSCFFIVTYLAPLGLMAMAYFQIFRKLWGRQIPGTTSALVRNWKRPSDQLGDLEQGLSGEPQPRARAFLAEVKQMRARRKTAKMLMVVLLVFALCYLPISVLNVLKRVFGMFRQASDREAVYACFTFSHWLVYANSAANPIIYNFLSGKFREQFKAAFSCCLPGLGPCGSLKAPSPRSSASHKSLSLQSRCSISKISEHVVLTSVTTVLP

[13] = as §1, with “Fluorescence-based” for “Homogeneous time resolved fluorescence (HTRF)-based”, “cell-based high throughput” for “cell-based”, “CHO” for “CHO-K1”; format: functional
[14] = target: T4, Orexin/Hypocretin receptor type 1; test: as §2, with “Homogeneous Time Resolved Fluorescence (HTRF)-based” for “Fluorescence-based”; format: functional
[15] = Mcl1-dependent cancer cell viability – HMC-1-8 cells, luminescence, dry powder, selectivity assay for A1 inhibitor project, dose response (AID 504415); format: functional, cell-based; conditions: Homo sapiens

T1 sequence (Q932Y6 whole entry): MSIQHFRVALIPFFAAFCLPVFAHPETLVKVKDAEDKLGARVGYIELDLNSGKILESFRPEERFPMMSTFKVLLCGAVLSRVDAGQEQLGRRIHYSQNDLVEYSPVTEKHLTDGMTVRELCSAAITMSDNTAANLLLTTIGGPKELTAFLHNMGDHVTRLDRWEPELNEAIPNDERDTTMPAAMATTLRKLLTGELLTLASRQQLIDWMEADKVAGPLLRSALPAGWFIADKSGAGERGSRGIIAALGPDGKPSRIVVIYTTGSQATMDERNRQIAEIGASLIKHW

Structure (SMILES): O=C(c1ccccc1)c1ccccc1N1C(=O)C=CC1=O
- IC50 (Beta Lactamase [1]): 15.5 µM (inactive)
- AC50 [2]: 16.7 µM (active)
- IC50 [3]: 1.99 µM (active)
- AC50 [4]: 2.21 µM (active)
- IC50 [5]: > 66 µM (inactive)
- AC50 [6]: 12.5 µM (active)
- IC50 (CHO): 2.78 µM (active)
- IC50 (Beta-galactosidase): > 66.6 µM (inactive)
- IC50 (Beta Lactamase [7]): 15.3 µM (inactive)
- AC50 [8]: 24.6 µM (active)
- IC50 [9]: > 66 µM (inactive)

Structure (SMILES): CCn1c(SCC(=O)c2ccc3ccccc3c2)nnc1-c1cccs1
- AC50 (Cytochrome P450 2C9): 17.8 µM (inconclusive)
- IC50 (Orexin receptor type 2 [10]): > 50 µM (inactive)
- IC50 (CHO-K1): > 66.2 µM (inactive)
- IC50 (Orexin receptor type 2 [11]): > 88.8 µM (inactive)
- IC50 [12]: 17.6 µM (inactive)
- IC50 [13]: > 49.8 µM (inactive)
- IC50 [14]: 6.66 µM (active)

Structure (SMILES): Cn1c(=O)c([N+](=O)[O-])c(Nc2ccc(Cl)cc2)c2ccccc21
- AC50 [15]: > 350 µM (inactive)
